Test results published in publication PMC10791743, “Selective CK1α degraders exert antiproliferative activity against a broad range of human cancer cell lines” (Nature Communications, 2024).
“And” between values parts separate entries of the source, which are not always exact repeats. Identical values can stand only once. Like-named read-outs stand apart in the source and are kept apart here. One block for each compound: values may come before it.

How the values were obtained:
IKZF1 = biological target: T1, IKZF1 (Homo sapiens, UniProt Q13422+Q96SW2); experiment: IKZF1 HiBiT live-cell kinetic degradation assay (Jurkat cells); format: cell-based
T1 construct: engineered by CRISPR/Cas9 to express endogenous IKZF1 (Jurkat cells) with a HiBiT tag
T1 sequence (Q13422 whole entry): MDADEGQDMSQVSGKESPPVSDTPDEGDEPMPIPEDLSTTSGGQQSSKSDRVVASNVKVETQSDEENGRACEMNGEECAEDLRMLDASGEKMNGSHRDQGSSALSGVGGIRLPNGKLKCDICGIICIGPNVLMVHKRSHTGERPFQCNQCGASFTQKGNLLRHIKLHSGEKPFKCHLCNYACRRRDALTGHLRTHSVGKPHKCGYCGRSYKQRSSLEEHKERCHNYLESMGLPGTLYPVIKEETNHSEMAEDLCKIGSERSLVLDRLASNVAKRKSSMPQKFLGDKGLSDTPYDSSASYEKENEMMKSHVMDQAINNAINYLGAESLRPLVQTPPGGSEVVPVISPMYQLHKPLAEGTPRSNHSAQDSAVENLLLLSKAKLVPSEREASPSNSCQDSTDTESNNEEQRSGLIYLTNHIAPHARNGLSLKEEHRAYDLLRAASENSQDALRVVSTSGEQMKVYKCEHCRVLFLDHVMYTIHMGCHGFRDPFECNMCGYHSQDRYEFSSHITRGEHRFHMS
T1 sequence (Q96SW2 whole entry): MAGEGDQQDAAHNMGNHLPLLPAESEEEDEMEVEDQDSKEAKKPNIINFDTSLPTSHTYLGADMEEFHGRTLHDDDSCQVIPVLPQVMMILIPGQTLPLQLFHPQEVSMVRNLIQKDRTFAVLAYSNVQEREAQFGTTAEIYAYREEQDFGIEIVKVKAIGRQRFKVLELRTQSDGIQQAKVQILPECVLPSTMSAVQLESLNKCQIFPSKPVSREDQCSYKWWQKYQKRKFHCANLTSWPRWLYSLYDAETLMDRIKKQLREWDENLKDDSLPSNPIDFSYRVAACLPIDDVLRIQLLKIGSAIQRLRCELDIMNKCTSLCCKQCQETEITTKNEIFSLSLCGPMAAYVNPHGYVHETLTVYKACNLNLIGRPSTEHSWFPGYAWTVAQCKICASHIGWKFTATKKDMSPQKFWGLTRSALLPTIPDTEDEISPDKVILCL
T1 sequence (Q16531 whole entry partner): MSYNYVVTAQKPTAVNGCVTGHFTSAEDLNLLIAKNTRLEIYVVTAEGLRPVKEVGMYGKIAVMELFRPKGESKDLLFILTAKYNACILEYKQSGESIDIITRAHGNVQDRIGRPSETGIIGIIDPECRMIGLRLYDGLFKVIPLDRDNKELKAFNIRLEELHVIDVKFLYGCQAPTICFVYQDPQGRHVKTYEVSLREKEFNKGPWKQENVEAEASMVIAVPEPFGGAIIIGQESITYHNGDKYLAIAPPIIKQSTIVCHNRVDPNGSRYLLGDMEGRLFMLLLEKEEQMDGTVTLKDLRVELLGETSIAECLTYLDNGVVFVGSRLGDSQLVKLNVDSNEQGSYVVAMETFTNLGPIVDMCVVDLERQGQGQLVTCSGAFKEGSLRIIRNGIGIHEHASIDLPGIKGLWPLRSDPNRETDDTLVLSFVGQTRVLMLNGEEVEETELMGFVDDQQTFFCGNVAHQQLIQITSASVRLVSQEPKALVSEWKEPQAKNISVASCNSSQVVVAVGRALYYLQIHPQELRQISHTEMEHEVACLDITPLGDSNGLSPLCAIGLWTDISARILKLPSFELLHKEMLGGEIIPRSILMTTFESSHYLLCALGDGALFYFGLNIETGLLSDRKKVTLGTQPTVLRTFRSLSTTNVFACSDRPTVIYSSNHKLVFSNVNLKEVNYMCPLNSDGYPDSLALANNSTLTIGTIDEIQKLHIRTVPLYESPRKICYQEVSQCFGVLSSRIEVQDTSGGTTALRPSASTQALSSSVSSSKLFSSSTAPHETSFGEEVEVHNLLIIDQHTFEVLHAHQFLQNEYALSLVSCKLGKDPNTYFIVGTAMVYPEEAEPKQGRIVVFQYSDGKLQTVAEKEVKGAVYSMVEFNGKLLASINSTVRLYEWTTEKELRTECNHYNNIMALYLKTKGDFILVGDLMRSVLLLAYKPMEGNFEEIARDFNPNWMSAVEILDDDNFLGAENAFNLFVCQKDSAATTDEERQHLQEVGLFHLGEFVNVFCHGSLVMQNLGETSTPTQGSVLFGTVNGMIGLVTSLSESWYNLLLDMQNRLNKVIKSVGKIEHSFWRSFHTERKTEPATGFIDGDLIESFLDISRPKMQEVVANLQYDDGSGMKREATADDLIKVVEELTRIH
From the text: To measure cellular protein levels, we used cell lines that have been engineered by CRISPR/Cas9 to express endogenous CK1α (HEK293 cells) or IKZF1 (Jurkat cells) with a HiBiT tag, which when coupled with LgBiT expression forms NanoBiT, a bioluminescent protein that can be used for kinetic studies of protein degradation. […] Cell viability was also monitored with CellTiter Glo 2.0 (Promega) at the completion of the experiment to ensure that loss of protein was not a consequence of a loss of cell viability.
IKZF1-HiBiT Jurkat LgBiT stable cells were seeded at 60,000 cells/well in 50% growth media/50% CO2 independent medium supplemented with 10% FBS and 1× Endurazine substrate. […] A dose–response curve was generated by performing 3-fold dilutions of each compound including a DMSO-only control in growth media. For live cell kinetic degradation assays, diluted compounds were added to CK1α and β-catenin plates and placed in a GloMax Discover (Promega, Cat. #GM3000) preheated to 37 °C or added to IKZF1 plates and placed in a CLARIOstar Plus (BMG LABTECH) preheated to 37 °C.
Relative protein level was determined based on normalization to the DMSO control and reported at Fractional RLUs. Degradation rate and degradation maximums were calculated from Fractional RLUs as previously described[38] using GraphPad Prism software. β-catenin stabilization time of onset for each concentration curve was calculated in GraphPad Prism by fitting an unconstrained plateau followed by one phase association model using the equation below (Y = IF(X < X0, Y0,Y0+(Plateau−Y0)*(1−exp(−K*(X−X0))))). The parameter, X0 was used as time of onset for each compound concentration.

CK1α = CK1α (Homo sapiens, UniProt P48729+Q96SW2); experiment: CK1α immunoblotting in MOLM-13 cells; format: cell-based; parameters: immunoblot analysis of CK1α in MOLM-13 cells following treatment with increasing concentrations of SJ7095 over 4 h; endogenous in cells; host or cells: MOLM-13 (DSMZ ACC 554); conditions: for Dmax: read-out: CK1α Dmax (immunoblot); for CK1a western blot quantification: CK1a data from blots in fig 2b
Sequence of CK1α (P48729 whole entry, the tested form may be a part): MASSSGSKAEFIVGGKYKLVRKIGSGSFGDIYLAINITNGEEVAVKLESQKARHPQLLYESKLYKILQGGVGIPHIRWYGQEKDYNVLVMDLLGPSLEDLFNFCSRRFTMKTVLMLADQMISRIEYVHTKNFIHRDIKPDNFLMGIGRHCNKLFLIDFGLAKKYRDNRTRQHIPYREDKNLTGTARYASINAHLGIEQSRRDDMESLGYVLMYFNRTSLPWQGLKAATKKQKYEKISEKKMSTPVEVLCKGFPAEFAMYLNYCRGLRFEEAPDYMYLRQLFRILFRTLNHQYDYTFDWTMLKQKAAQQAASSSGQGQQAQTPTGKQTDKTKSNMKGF
Sequence of CK1α (Q96SW2 whole entry, the tested form may be a part): as the sequence (Q96SW2 whole entry) above
Sequence of CK1α (Q16531 whole entry partner, the tested form may be a part): as the sequence (Q16531 whole entry partner) above
Description: Frozen pellets of ~1 million cells were lysed in 150 µl of SDS lysis buffer (60 mM Tris/HCl pH 7, 10% glycerol, 2% SDS, 5% beta-mercaptoethanol, 0.02% bromophenol blue, 0.5% protease and phosphatase inhibitor cocktail (Sigma Aldrich)). When cells were resuspended, samples were heated for 3 min at 99 °C then put on ice. Samples were then fragmented by sonication for 10 0.5-s pulses (550 Sonic Dismembrator, Fisher Scientific) and heated again at 99 °C for 2 min. 15 μl of each sample was added to the wells of a 4–20% polyacrylamide gel (Bio-Rad). A mixture of 2 μl of Precision Plus Protein Unstained Standards and 2 μl of Precision Plus Protein All Blue Standards (Bio-Rad) was used for the size marker. After electrophoresis, gels were transferred to nitrocellulose membrane using the Bio-Rad Trans-Blot Turbo system on the mixed molecular weight setting. Membranes were blocked for 1 h in Li-Cor Intercept Blocking Buffer then probed overnight at 4 °C with primary antibody, at 1:1000 dilution or 1:2000 dilution for actin, in Li-Cor Intercept Antibody Diluent. The following morning, membranes were washed three times for 5 min with TBS + 0.05% Tween-20, probed with fluorescent secondary antibodies (goat anti-rabbit IRDye 800CW and goat anti-mouse IRDye 680RD, Li-Cor) for 1 h at room temperature in the dark at 1:10,000 dilution, and washed again 3 times. Blots were imaged with the Li-Cor Odyssey CLx and analyzed using Image Studio Version 5.2.

[1] = Jurkat, 0.111 uM, read-out: IKZF1 Percent Maximum Degradation
[2] = MOLM-13, 4 h, read-out: CK1α DC50 (immunoblot)
[3] = Jurkat, 10 µM, over 24 h, read-out: IKZF1 Dmax (HiBiT)
[4] = time course 0-8 hrs, relative to no treatment
[5] = western blot quantification, relative to DMSO

IKZF1 Percent Maximum Degradation (IKZF1; 0.111 uM): 51.56% and 53.98% and 57.51% | IKZF1 Percent Maximum Degradation (IKZF1; 0.333 uM): 65.57% and 67.60% and 69.65% | IKZF1 Percent Maximum Degradation (IKZF1; 1 uM): 74.04% and 75.26% and 77.24% | IKZF1 Percent Maximum Degradation (IKZF1; 3 uM): 79.22% and 78.05% and 80.15% | IKZF1 Percent Maximum Degradation (IKZF1; 10 uM, replicates): 80.57% and 81.85% and 92.17% | Dmax at 0.111 µM (IKZF1; [1]): 51.7% | Dmax at 0.333 µM (IKZF1; Jurkat, 0.333 uM, read-out: IKZF1 Percent Maximum Degradation): 64.8% | Dmax at 1 µM (IKZF1; Jurkat, 1 uM, read-out: IKZF1 Percent Maximum Degradation): 73.8% | Dmax at 3 µM (IKZF1; Jurkat, 3 uM, read-out: IKZF1 Percent Maximum Degradation): 78.4% | Dmax at 10 µM (IKZF1; Jurkat, 10 uM, replicates, read-out: IKZF1 Percent Maximum Degradation): 80% | DC50 (IKZF1; Jurkat, at 4 h): 69 nM | CK1α degradation (CK1α; MOLM-13, 100 nM, 4 h): near complete degradation of CK1α | DC50 (CK1α; [2]): 15 nM
SMILES: O=C1CCC(N2Cc3c(CNC(=O)c4ccc(F)cc4)cccc3C2=O)C(=O)N1 (stereo not drawn) [SJ7095]

SMILES: O=C1CCC(N2Cc3cc(Nc4noc5ccccc45)ccc3C2=O)C(=O)N1 (stereo not drawn) [SJ3149]
IKZF1 Percent Maximum Degradation (IKZF1; 10 uM, replicates): 11.66% and -2.50% and 4.13% and 1.42% | Dmax at 10 µM (IKZF1; [3]): < 10% | CK1α protein, time course (CK1α; MOLM-13, 1 μM, 0-8 h): near complete loss of CK1α protein by 1 h | DC50 (CK1α; [2]): 3.7 nM and 4 nM | Dmax (CK1α; MOLM-13, 4 h): 95% | CK1a western blot quantification (CK1α; SJ3149 0.001 uM, relative to DMSO): 0.9925 and 0.9819 and 0.7065 | CK1a western blot quantification (CK1α; SJ3149 0.01 uM, relative to DMSO): 0.3125 and 0.2648 and 0.1727 | CK1a western blot quantification (CK1α; SJ3149 0.1 uM, relative to DMSO): 0.1087 and 0.1074 and 0.06013 | CK1a quantified protein expression (western blot) (CK1α; time 8 hrs, relative to no treatment, 3 western blots): 0.0615 and 0.09529 and 0.04877 | IC50 (line fit, sigmoidal 4PL) of CK1a expression versus time (CK1α; time course 0-8 hrs, X axis is time): 0.403 | Bottom (line fit, sigmoidal 4PL) of CK1a expression versus time (CK1α; [4]): 0.04517 | Top (line fit, sigmoidal 4PL) of CK1a expression versus time (CK1α; [4]): 0.8089 | DC50 (CK1α; western blot quantification, blots in fig 2b, read-out: IC50 (sigmoidal 4PL fit) of CK1a protein level): 3.75 nM | Bottom (sigmoidal 4PL fit) of CK1a protein level (CK1α; [5]): 0.07909 | Top (sigmoidal 4PL fit) of CK1a protein level (CK1α; [5]): 1.004

IKZF1 Percent Maximum Degradation (IKZF1; 10 uM, replicates, listed as SJ10040): -2.54% and -2.18% and 5.17% and -2.35% | Dmax at 0.111 µM (IKZF1; [1]): 0% | Dmax at 10 µM (IKZF1; [3]): < 10% | DC50 (CK1α; [2]): 11 nM | Dmax (CK1α; MOLM-13, 4 h): 88%
SMILES: Cc1cccc(C(=O)Nc2ccc3c(c2)CN(C2CCC(=O)NC2=O)C3=O)c1 (stereo not drawn) [SJ0040]
